# Molecular target: WDR5 (Homo sapiens (Human), UniProt P61964)
# Experiment: Surface Plasmon Resonance (SPR) assay, KD and residence time
# Assay type: binding
# Conditions: surface plasmon resonance (SPR) assay; read-out: WDR5 binding affinity (KD)
row,SMILES,Kd [nM]
1,"C[C@@H]1CN(c2cc(F)c(C3=CCN(Cc4ccc(F)cc4)CC3)cc2NC(=O)c2c[nH]c(=O)cc2C(F)(F)F)C[C@H](C)N1C [Example 153, N-[4-fluoro-5-[1-[(4-fluorophenyl)methyl]-3,6-dihydro-2H-pyridin-4-yl]-2-[(3R,5S)-3,4,5-trimethylpiperazin-1-yl]phenyl]-6-oxo-4-(trifluoromethyl)-1H-pyridine-3-carboxamide]",1.08
2,"C[C@@H]1CN(c2cc(F)c(C3=CCN(Cc4cccnc4)CC3)cc2NC(=O)c2c[nH]c(=O)cc2C(F)(F)F)C[C@H](C)N1C [Example 154, N-[4-fluoro-5-[1-(pyridin-3-ylmethyl)-3,6-dihydro-2H-pyridin-4-yl]-2-[(3R,5S)-3,4,5-trimethylpiperazin-1-yl]phenyl]-6-oxo-4-(trifluoromethyl)-1H-pyridine-3-carboxamide]",5.46
3,"C[C@@H]1CN(c2cc(F)c(C3=CCN(Cc4ccsc4)CC3)cc2NC(=O)c2c[nH]c(=O)cc2C(F)(F)F)C[C@H](C)N1C [Example 155, N-[4-fluoro-2-[(3R,5S)-3,4,5-trimethylpiperazin-1-yl]-5-[1-(thiophen-3-ylmethyl)-3,6-dihydro-2H-pyridin-4-yl]phenyl]-6-oxo-4-(trifluoromethyl)-1H-pyridine-3-carboxamide]",4.76
4,"C[C@@H]1CN(c2cc(F)c(-c3cncc(OCC4CC4)c3)cc2NC(=O)c2c[nH]c(=O)cc2C(F)(F)F)C[C@H](C)N1C [Example 156, N-[5-[5-(cyclopropylmethoxy)pyridin-3-yl]-4-fluoro-2-[(3R,5S)-3,4,5-trimethylpiperazin-1-yl]phenyl]-6-oxo-4-(trifluoromethyl)-1H-pyridine-3-carboxamide]",8.61
5,"C[C@@H]1CN(c2cc(F)c(-c3cnc(N4CCNCC4)nc3)cc2NC(=O)c2c[nH]c(=O)cc2C(F)(F)F)C[C@H](C)N1C [Example 158, N-[4-fluoro-5-(2-piperazin-1-ylpyrimidin-5-yl)-2-[(3R,5S)-3,4,5-trimethylpiperazin-1-yl]phenyl]-6-oxo-4-(trifluoromethyl)-1H-pyridine-3-carboxamide]",0.345
6,"C[C@@H]1CN(c2cc(F)c(C3=CCN(Cc4nccs4)CC3)cc2NC(=O)c2c[nH]c(=O)cc2C(F)(F)F)C[C@H](C)N1C [Example 162, N-[4-fluoro-2-[(3R,5S)-3,4,5-trimethylpiperazin-1-yl]-5-[1-(1,3-thiazol-2-ylmethyl)-3,6-dihydro-2H-pyridin-4-yl]phenyl]-6-oxo-4-(trifluoromethyl)-1H-pyridine-3-carboxamide]",2.83
7,"Cc1ncc(CN2CC=C(c3cc(NC(=O)c4c[nH]c(=O)cc4C(F)(F)F)c(N4C[C@@H](C)N(C)[C@@H](C)C4)cc3F)CC2)o1 [Example 163, N-[4-fluoro-5-[1-[(2-methyl-1,3-oxazol-5-yl)methyl]-3,6-dihydro-2H-pyridin-4-yl]-2-[(3R,5S)-3,4,5-trimethylpiperazin-1-yl]phenyl]-6-oxo-4-(trifluoromethyl)-1H-pyridine-3-carboxamide]",4.05
8,"C[C@@H]1CN(c2cc(F)c(C3=CCN(Cc4cnn(C)c4)CC3)cc2NC(=O)c2c[nH]c(=O)cc2C(F)(F)F)C[C@H](C)N1C [Example 164, N-[4-fluoro-5-[1-[(I-methylpyrazol-4-yl)methyl]-3,6-dihydro-2H-pyridin-4-yl]-2-[(3R,5S)-3,4,5-trimethylpiperazin-1-yl]phenyl]-6-oxo-4-(trifluoromethyl)-1H-pyridine-3-carboxamide]",1.43
9,"C[C@@H]1CN(c2cc(F)c(C3=CCN(CC4CCOCC4)CC3)cc2NC(=O)c2c[nH]c(=O)cc2C(F)(F)F)C[C@H](C)N1C [Example 167, N-[4-fluoro-5-[1-(oxan-4-ylmethyl)-3,6-dihydro-2H-pyridin-4-yl]-2-[(3R,5S)-3,4,5-trimethylpiperazin-1-yl]phenyl]-6-oxo-4-(trifluoromethyl)-1H-pyridine-3-carboxamide]",5.76
10,"C[C@@H]1CN(c2cc(F)c(-c3cnc4c(c3)CCN4)cc2NC(=O)c2c[nH]c(=O)cc2C(F)(F)F)C[C@H](C)N1C [Example 172, N-[5-(2,3-dihydro-1H-pyrrolo[2,3-b]pyridin-5-yl)-4-fluoro-2-[(3R,5S)-3,4,5-trimethylpiperazin-1-yl]phenyl]-6-oxo-4-(trifluoromethyl)-1H-pyridine-3-carboxamide]",10.3
11,"C[C@@H]1CN(c2cc(F)c(-c3cncc(C(F)(F)F)c3)cc2NC(=O)c2c[nH]c(=O)cc2C(F)(F)F)C[C@H](C)N1C [Example 173, N-[4-fluoro-2-[(3R,5S)-3,4,5-trimethylpiperazin-1-yl]-5-[5-(trifluoromethyl)pyridin-3-yl]phenyl]-6-oxo-4-(trifluoromethyl)-1H-pyridine-3-carboxamide]",2.78
12,"C[C@@H]1CN(c2cc(F)c(-c3cncc(C(=O)NC(C)(C)C)c3)cc2NC(=O)c2c[nH]c(=O)cc2C(F)(F)F)C[C@H](C)N1C [Example 174, N-[5-[5-(tert-butylcarbamoyl)pyridin-3-yl]-4-fluoro-2-[(3R,5S)-3,4,5-trimethylpiperazin-1-yl]phenyl]-6-oxo-4-(trifluoromethyl)-1H-pyridine-3-carboxamide]",1.53
13,"C[C@@H]1CN(c2cc(F)c(-c3cncc(C(N)=O)c3)cc2NC(=O)c2c[nH]c(=O)cc2C(F)(F)F)C[C@H](C)N1C [Example 179, N-[5-(5-carbamoylpyridin-3-yl)-4-fluoro-2-[(3R,5S)-3,4,5-trimethylpiperazin-1-yl]phenyl]-6-oxo-4-(trifluoromethyl)-1H-pyridine-3-carboxamide]",11.5

# Results, then the molecule that gave them:
row,Kd [nM],SMILES
1,2.16,"C[C@@H]1CN(c2cc(F)c(-c3ccc(O)nc3)cc2NC(=O)c2c[nH]c(=O)cc2C(F)(F)F)C[C@H](C)N1C [Example 157, N-[4-fluoro-5-(6-hydroxypyridin-3-yl)-2-[(3R,5S)-3,4,5-trimethylpiperazin-1-yl]phenyl]-6-oxo-4-(trifluoromethyl)-1H-pyridine-3-carboxamide]"
2,29,"C[C@@H]1CN(c2cc(F)c(-c3cnc(N4CCOCC4)nc3)cc2NC(=O)c2cc(F)cc(Cl)c2)C[C@H](C)N1C [Example 159, 3-chloro-5-fluoro-N-[4-fluoro-5-(2-morpholin-4-ylpyrimidin-5-yl)-2-[(3R,5S)-3,4,5-trimethylpiperazin-1-yl]phenyl]benzamide]"
3,26.8,"C[C@@H]1CN(c2cc(F)c(-c3cnc(N4CCOCC4)nc3)cc2NC(=O)c2cc(F)cc(F)c2)C[C@H](C)N1C [Example 160, 3,5-difluoro-N-[4-fluoro-5-(2-morpholin-4-ylpyrimidin-5-yl)-2-[(3R,5S)-3,4,5-trimethylpiperazin-1-yl]phenyl]benzamide]"
4,6.28,"C[C@@H]1CN(c2cc(F)c(C3=CCN(Cc4ccc(N5CCOCC5)cc4)CC3)cc2NC(=O)c2c[nH]c(=O)cc2C(F)(F)F)C[C@H](C)N1C [Example 165, N-[4-fluoro-5-[1-[(4-morpholin-4-ylphenyl)methyl]-3,6-dihydro-2H-pyridin-4-yl]-2-[(3R,5S)-3,4,5-trimethylpiperazin-1-yl]phenyl]-6-oxo-4-(trifluoromethyl)-1H-pyridine-3-carboxamide]"
5,0.23,"C[C@@H]1CN(c2cc(F)c(C3=CCN(Cc4ccc(N5CCN(C)CC5)cc4)CC3)cc2NC(=O)c2c[nH]c(=O)cc2C(F)(F)F)C[C@H](C)N1C [Example 166, N-[4-fluoro-5-[1-[[4-(4-methylpiperazin-1-yl)phenyl]methyl]-3,6-dihydro-2H-pyridin-4-yl]-2-[(3R,5S)-3,4,5-trimethylpiperazin-1-yl]phenyl]-6-oxo-4-(trifluoromethyl)-1H-pyridine-3-carboxamide]"
6,30,"CN(C)[C@@H]1CCN(c2cc(F)c(-c3cnc(N4CCOCC4)nc3)cc2NC(=O)c2cc(Cl)cc(Cl)c2)C1 [Example 168, 3,5-dichloro-N-[4-fluoro-5-(2-morpholin-4-ylpyrimidin-5-yl)-2-[(3R)-3-(dimethylamino)pyrrolidin-1-yl]phenyl]benzamide]"
7,122,"CN(C)[C@@H]1CCN(c2cc(F)c(-c3ccc(N4CCOCC4)cc3)cc2NC(=O)c2cc(Cl)cc(Cl)c2)C1 [Example 169, 3,5-dichloro-N-[4-fluoro-5-(4-morpholin-4-ylphenyl)-2-[(3R)-3-(dimethylamino)pyrrolidin-1-yl]phenyl]benzamide]"
8,1.17,"C[C@@H]1CN(c2cc(F)c(-c3cnc(N4CCOCC4)c(C#N)c3)cc2NC(=O)c2c[nH]c(=O)cc2C(F)(F)F)C[C@H](C)N1C [Example 170, N-[5-(5-cyano-6-morpholin-4-ylpyridin-3-yl)-4-fluoro-2-[(3R,5S)-3,4,5-trimethylpiperazin-1-yl]phenyl]-6-oxo-4-(trifluoromethyl)-1H-pyridine-3-carboxamide]"
9,2.5,"Cc1cc(-c2cc(NC(=O)c3c[nH]c(=O)cc3C(F)(F)F)c(N3C[C@@H](C)N(C)[C@@H](C)C3)cc2F)cnc1N1CCOCC1 [Example 171, N-[4-fluoro-5-(5-methyl-6-morpholin-4-ylpyridin-3-yl)-2-[(3R,5S)-3,4,5-trimethylpiperazin-1-yl]phenyl]-6-oxo-4-(trifluoromethyl)-1H-pyridine-3-carboxamide]"
10,20.6,"C[C@@H]1CN(c2cc(F)c(-c3cnc(N4CCOCC4)nc3)cc2NC(=O)c2cc(Cl)cc(C(F)(F)F)c2)C[C@H](C)N1C [Example 175, 3-chloro-N-[4-fluoro-5-(2-morpholin-4-ylpyrimidin-5-yl)-2-[(3R,5S)-3,4,5-trimethylpiperazin-1-yl]phenyl]-5-(trifluoromethyl)benzamide]"
11,50.9,"C[C@@H]1CN(c2cc(F)c(-c3cnc(N4CCOCC4)nc3)cc2NC(=O)c2cc(F)cc(C(F)(F)F)c2)C[C@H](C)N1C [Example 176, 3-fluoro-N-[4-fluoro-5-(2-morpholin-4-ylpyrimidin-5-yl)-2-[(3R,5S)-3,4,5-trimethylpiperazin-1-yl]phenyl]-5-(trifluoromethyl)benzamide]"
12,> 200,"CN(C)[C@@H]1CCN(c2cc(F)c(-c3ccc(N4CCOCC4)cc3)cc2NC(=O)c2cn[nH]c2)C1 [Example 177, N-[4-fluoro-5-(4-morpholin-4-ylphenyl)-2-[(3R)-3-(dimethylamino)pyrrolidin-1-yl]phenyl]-1H-pyrazole-4-carboxamide]"
